Reference: patent US9051310B2, “Nicotinamide derivative or salt thereof” (FUJIFILM Corporation, priority 2011, dated 2015)

What follows are compounds tested against T1, glutathione S-transferase (GST)-linked full-length human Syk protein (Homo sapiens, UniProt P43405) (assay: Syk enzyme assay). Settings: 0.83 nM Syk, time-resolved fluorescence; read-out: IC50 of Syk-inhibitory activity.
T1 construct: glutathione S-transferase (GST)-linked full-length human Syk protein; purchased Carna Biosciences; host or cells: Baculovirus expression system
Type: biochemical
Procedure, shortened: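 Phosphotyrosine on a biotin-peptide substrate (0.5 μM) was read by time-resolved fluorescence at 615 and 665 nm with Eu-anti-pTyr antibody and APC-streptavidin after 1 h EDTA stop.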

IC50 [nM]	Compound
10 to 50	COc1cc(Nc2nc(N[C@H](c3ccccc3)[C@H](C)N)c(F)cc2C(N)=O)cc(OC)n1 [Example 2-356, 6-(((1R,2S)-2-amino-1-phenylpropyl)amino)-2-((2,6-dimethoxypyridin-4-yl)amino)-5-fluoronicotinamide]
10 to 50	COc1ccc([C@@H](Nc2nc(Nc3cc(OC)nc(OC)c3)c(C(N)=O)cc2F)[C@H](C)N)cc1 [Example 2-357, 6-(((1R,2S)-2-amino-1-(4-methoxyphenyl)propyl)amino)-2-((2,6-dimethoxypyridin-4-yl)amino)-5-fluoronicotinamide]
50 to 100	CC[C@H](N)[C@H](Nc1nc(Nc2cnc(N3CCOCC3)c(F)c2)c(C(N)=O)cc1F)C1CC1 [Example 2-359, 6-(((1R,2S)-2-amino-1-cyclopropylbutyl)amino)-5-fluoro-2-((5-fluoro-6-morpholinopyridin-3-yl)amino)nicotinamide]
10 to 50	CC[C@H](N)[C@H](Nc1nc(Nc2ccnc(OCCOC)c2)c(C(N)=O)cc1F)C1CC1 [Example 2-360, 6-(((1R,2S)-2-amino-1-cyclopropylbutyl)amino)-5-fluoro-2-((2-(2-methoxyethoxy)pyridin-4-yl)amino)nicotinamide]
10 to 50	CC[C@H](N)[C@H](Nc1nc(Nc2cc(OC)cc(OC)c2)c(C(N)=O)cc1F)C1CC1 [Example 2-361, 6-(((1R,2S)-2-amino-1-cyclopropylbutyl)amino)-2-((3,5-dimethoxyphenyl)amino)-5-fluoronicotinamide]
10 to 50	CCn1ncc2cc(Nc3nc(N[C@@H](CN)Cc4ccccc4)c(F)cc3C(N)=O)ccc21 [Example 2-363, (R)-6-((1-amino-3-phenylpropan-2-yl)amino)-2-((1-ethyl-1H-indazol-5-yl)amino)-5-fluoronicotinamide]
50 to 100	Cc1ncc(Nc2nc(N[C@@H](CN)Cc3ccccc3)c(F)cc2C(N)=O)cc1-n1nccn1 [Example 2-364, (R)-6-((1-amino-3-phenylpropan-2-yl)amino)-5-fluoro-2-((6-methyl-5-(2H-1,2,3-triazol-2-yl)pyridin-3-yl)amino)nicotinamide]
< 10	CCn1ncc2c(Nc3nc(N[C@@H]4CCCC[C@@H]4N)c(F)cc3C(N)=O)cc(F)cc21 [Example 2-369, 6-(((1R,2S)-2-aminocyclohexyl)amino)-2-((1-ethyl-6-fluoro-1H-indazol-4-yl)amino)-5-fluoronicotinamide]
< 10	CC[C@@H](Nc1nc(Nc2cc(F)cc3c2cnn3CC)c(C(N)=O)cc1F)[C@H](C)N [Example 2-371, 6-(((2S,3R)-2-aminopentan-3-yl)amino)-2-((1-ethyl-6-fluoro-1H-indazol-4-yl)amino)-5-fluoronicotinamide]
< 10	CC[C@H](N)[C@@H](C)Nc1nc(Nc2cc(F)cc3c2cnn3CC)c(C(N)=O)cc1F [Example 2-373, 6-(((2R,3S)-3-aminopentan-2-yl)amino)-2-((1-ethyl-6-fluoro-1H-indazol-4-yl)amino)-5-fluoronicotinamide]
10 to 50	CC[C@H](N)[C@H](Nc1nc(Nc2cnc(C)c(F)c2)c(C(N)=O)cc1F)C1CC1 [Example 2-382, 6-(((1R,2S)-2-amino-1-cyclopropylbutyl)amino)-5-fluoro-2-((5-fluoro-6-methylpyridin-3-yl)amino)nicotinamide]
< 10	CC[C@H](N)[C@H](Nc1nc(Nc2cc(F)c3c(c2)c(N(C)C)nn3C)c(C(N)=O)cc1F)C1CC1 [Example 2-383, 6-(((1R,2S)-2-amino-1-cyclopropylbutyl)amino)-2-((3-(dimethylamino)-7-fluoro-1-methyl-1H-indazol-5-yl)amino)-5-fluoronicotinamide]
< 10	COCCn1ncc2c(Nc3nc(N[C@@H]4CCCC[C@@H]4N)c(F)cc3C(N)=O)cncc21 [Example 2-384, 6-(((1R,2S)-2-aminocyclohexyl)amino)-5-fluoro-2-((1-(2-methoxyethyl)-1H-pyrazolo[3,4-c]pyridin-4-yl)amino)nicotinamide]
10 to 50	COCCn1ncc2c(Nc3nc(N[C@@H]4CCOC[C@@H]4N)c(F)cc3C(N)=O)cncc21 [Example 2-385, 6-(((3R,4R)-3-aminotetrahydro-2H-pyran-4-yl)amino)-5-fluoro-2-((1-(2-methoxyethyl)-1H-pyrazolo[3,4-c]pyridin-4-yl)amino)nicotinamide]
< 10	COCCn1ncc2c(Nc3nc(N[C@@H](CN)CC(C)C)c(F)cc3C(N)=O)cncc21 [Example 2-386, (R)-6-((1-amino-4-methylpentan-2-yl)amino)-5-fluoro-2-((1-(2-methoxyethyl)-1H-pyrazolo[3,4-c]pyridin-4-yl)amino)nicotinamide]
10 to 50	CC[C@@H](Nc1nc(Nc2cncc3c2cnn3CCOC)c(C(N)=O)cc1F)[C@H](C)N [Example 2-387, 6-(((2S,3R)-2-aminopentan-3-yl)amino)-5-fluoro-2-((1-(2-methoxyethyl)-1H-pyrazolo[3,4-c]pyridin-4-yl)amino)nicotinamide]

IC50 [nM]	Compound
< 10	COCCn1ncc2c(Nc3nc(N[C@H](C4CC4)[C@H](C)N)c(F)cc3C(N)=O)cncc21 [Example 2-388, 6-(((1R,2S)-2-amino-1-cyclopropylpropyl)amino)-5-fluoro-2-((1-(2-methoxyethyl)-1H-pyrazolo[3,4-c]pyridin-4-yl)amino)nicotinamide]
10 to 50	CCCC[C@@H](Nc1nc(Nc2cncc3c2cnn3CCOC)c(C(N)=O)cc1F)[C@H](C)N [Example 2-389, 6-(((2S,3R)-2-aminoheptan-3-yl)amino)-5-fluoro-2-((1-(2-methoxyethyl)-1H-pyrazolo[3,4-c]pyridin-4-yl)amino)nicotinamide]
< 10	COCCn1ncc2c(Nc3nc(N[C@H](CC(C)C)[C@H](C)N)c(F)cc3C(N)=O)cncc21 [Example 2-390, 6-(((2S,3R)-2-amino-5-methylhexan-3-yl)amino)-5-fluoro-2-((1-(2-methoxyethyl)-1H-pyrazolo[3,4-c]pyridin-4-yl)amino)nicotinamide]
< 10	COCCn1ncc2c(Nc3nc(N[C@H](C4CCC4)[C@H](C)N)c(F)cc3C(N)=O)cncc21 [Example 2-391, 6-(((1R,2S)-2-amino-1-cyclobutylpropyl)amino)-5-fluoro-2-((1-(2-methoxyethyl)-1H-pyrazolo[3,4-c]pyridin-4-yl)amino)nicotinamide]
< 10	CC(C)C[C@H](CN)Nc1nc(Nc2cncc3c2cnn3CC(F)F)c(C(N)=O)cc1F [Example 2-395, (R)-6-((1-amino-4-methylpentan-2-yl)amino)-2-((1-(2,2-difluoroethyl)-1H-pyrazolo[3,4-c]pyridin-4-yl)amino)-5-fluoronicotinamide]
< 10	CC[C@@H](Nc1nc(Nc2cncc3c2cnn3CC(F)F)c(C(N)=O)cc1F)[C@H](C)N [Example 2-396, 6-(((2S,3R)-2-aminopentan-3-yl)amino)-2-((1-(2,2-difluoroethyl)-1H-pyrazolo[3,4-c]pyridin-4-yl)amino)-5-fluoronicotinamide]
< 10	C[C@H](N)[C@H](Nc1nc(Nc2cncc3c2cnn3CC(F)F)c(C(N)=O)cc1F)C1CC1 [Example 2-398, 6-(((1R,2S)-2-amino-1-cyclopropylpropyl)amino)-2-((1-(2,2-difluoroethyl)-1H-pyrazolo[3,4-c]pyridin-4-yl)amino)-5-fluoronicotinamide]
< 10	CC(C)C[C@@H](Nc1nc(Nc2cncc3c2cnn3CC(F)F)c(C(N)=O)cc1F)[C@H](C)N [Example 2-400, 6-(((2S,3R)-2-amino-5-methylhexan-3-yl)amino)-2-((1-(2,2-difluoroethyl)-1H-pyrazolo[3,4-c]pyridin-4-yl)amino)-5-fluoronicotinamide]
< 10	C[C@H](N)[C@H](Nc1nc(Nc2cncc3c2cnn3CC(F)F)c(C(N)=O)cc1F)C1CCC1 [Example 2-401, 6-(((1R,2S)-2-amino-1-cyclobutylpropyl)amino)-2-((1-(2,2-difluoroethyl)-1H-pyrazolo[3,4-c]pyridin-4-yl)amino)-5-fluoronicotinamide]
< 10	CC[C@H](N)[C@@H](C)Nc1nc(Nc2cncc3c2cnn3CC(F)F)c(C(N)=O)cc1F [Example 2-402, 6-(((2R,3S)-3-aminopentan-2-yl)amino)-2-((1-(2,2-difluoroethyl)-1H-pyrazolo[3,4-c]pyridin-4-yl)amino)-5-fluoronicotinamide]
10 to 50	Cc1ncc(Nc2nc(N[C@H](c3ccccn3)[C@H](C)N)c(F)cc2C(N)=O)cc1-n1nccn1 [Example 2-403, 6-(((1S,2S)-2-amino-1-(pyridin-2-yl)propyl)amino)-5-fluoro-2-((6-methyl-5-(2H-1,2,3-triazol-2-yl)pyridin-3-yl)amino)nicotinamide]
10 to 50	COc1ncc(Nc2nc(N[C@@H]3CCCC[C@@H]3N)c(F)cc2C(N)=O)c2cnn(C)c12 [Example 2-407, 6-(((1R,2S)-2-aminocyclohexyl)amino)-5-fluoro-2-((7-methoxy-1-methyl-1H-pyrazolo[3,4-c]pyridin-4-yl)amino)nicotinamide]
50 to 100	COc1ncc(Nc2nc(N[C@H](C3CC3)[C@H](C)N)c(F)cc2C(N)=O)c2cnn(C)c12 [Example 2-408, 6-(((1R,2S)-2-amino-1-cyclopropylpropyl)amino)-5-fluoro-2-((7-methoxy-1-methyl-1H-pyrazolo[3,4-c]pyridin-4-yl)amino)nicotinamide]
< 10	COc1cc(Nc2nc(N[C@H](c3ccccc3F)[C@H](C)N)c(F)cc2C(N)=O)cc(OC)n1 [Example 2-411, 6-(((1R,2S)-2-amino-1-(2-fluorophenyl)propyl)amino)-2-((2,6-dimethoxypyridin-4-yl)amino)-5-fluoronicotinamide]
10 to 50	Cc1ncc(Nc2nc(N[C@H](c3cccc(F)c3)[C@H](C)N)c(F)cc2C(N)=O)cc1-n1nccn1 [Example 2-412, 6-(((1R,2S)-2-amino-1-(3-fluorophenyl)propyl)amino)-5-fluoro-2-((6-methyl-5-(2H-1,2,3-triazol-2-yl)pyridin-3-yl)amino)nicotinamide]
